Literature values as cited in patent US5498598A, “Composition for nasal administration of desmopressin” (Ferring AB, priority 1995, dated 1996).

Details: in vivo

**Q.** Which “absorption of a given amount in larger volume versus the same amount in smaller volume” value does the source give for `NC(=O)CC[C@@H]1NC(=O)[C@H](Cc2ccccc2)NC(=O)[C@H](Cc2ccc(O)cc2)NC(=O)CCSSC[C@@H](C(=O)N2CCC[C@H]2C(=O)N[C@H](CCCN=C(N)N)C(=O)NCC(N)=O)NC(=O)[C@H](CC(N)=O)NC1=O` [desmopressin, 1-(3-mercaptopropionic acid)-8-D-arginine-vasopressin] here?
**A.** absorbed substantially less effectively
